PMC5007552, “The hVps34‐SGK3 pathway alleviates sustained PI3K/Akt inhibition by stimulating mTORC1 and tumour growth” (The EMBO Journal, 2016)

What was measured:
SGK3[S486E] = molecular target: T1, SGK3[S486E] (Homo sapiens, UniProt Q96BR1, S486E); assay: SGK3 kinase assay on phospholipid vesicles: phosphorylation of SGK3[S486E] at Thr320 by PDK1 with PtdIns(3)P; assay type: biochemical; details: in the presence of PtdIns(3)P
T1 construct: host or cells: HEK293
T1 sequence (Q96BR1 1-496 S486E): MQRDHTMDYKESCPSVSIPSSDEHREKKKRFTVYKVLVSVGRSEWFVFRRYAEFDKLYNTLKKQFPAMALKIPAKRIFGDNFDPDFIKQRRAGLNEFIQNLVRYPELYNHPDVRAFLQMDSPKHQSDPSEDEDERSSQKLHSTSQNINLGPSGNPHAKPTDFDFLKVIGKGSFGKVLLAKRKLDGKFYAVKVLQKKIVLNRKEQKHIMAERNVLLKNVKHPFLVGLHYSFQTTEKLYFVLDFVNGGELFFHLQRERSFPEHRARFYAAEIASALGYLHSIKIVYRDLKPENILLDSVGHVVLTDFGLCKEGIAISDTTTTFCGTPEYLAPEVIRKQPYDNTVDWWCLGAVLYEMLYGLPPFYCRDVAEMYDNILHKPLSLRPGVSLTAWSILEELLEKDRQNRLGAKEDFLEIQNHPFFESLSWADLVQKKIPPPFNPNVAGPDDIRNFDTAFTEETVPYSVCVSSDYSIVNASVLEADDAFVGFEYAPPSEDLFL
Protocol: Figure 4 PtdIns(3)P binding to PX domain of SGK3 promotes phosphorylation and activation by PDK1 • A, B SGK3 [S486E]‐GST and SGK3 [R90A S486]‐GST were purified from HEK293 cells transiently overexpressing these enzymes. […] SGK3[S486E]‐GST (A) or the non‐PtdIns(3)P‐binding mutant SGK3[R90A, S486E]‐GST (B) was incubated with lipid vesicles comprising phosphatidylcholine (PC) and phosphatidylserine (PS) containing the indicted concentrations of PtdIns or PtdIns(3)P in the presence or absence of added recombinant PDK1 (50 ng) and kinase reactions were initiated by addition of MgATP. After 30 min at 30°C, PDK1 was inhibited by addition of the 1 μM GSK2334470 PDK1 inhibitor and the reaction mixture was supplemented with 2 μg GST‐NDRG1 SGK3 substrate. After another 30 min at 30°C, the reaction was terminated by addition of SDS sample buffer. The reaction mixtures were subjected to immunoblot analysis with the indicated antibodies.
The result for each kinase is presented as a mean kinase activity of the reaction taken in triplicate relative to a control reaction where the inhibitors were omitted. […] SGK3 was immunoprecipitated from cell lysates and subjected to in vitro kinase assay by measuring phosphorylation of the Crosstide substrate peptide in the presence of 0.1 mM [γ‐^32P]ATP in a 30 min 30°C reaction (upper panel). Kinase reactions are presented as means ± SD for triplicate reaction. […]

[1] = test system: NDRG1 phosphorylation in ZR-75-1 cells; assay: Immunoblot of NDRG1 (Thr346) phosphorylation in breast cancer cells; assay type: cell-based, human; details: 1 μM, 1 h; ZR-75-1, CAMA-1 (and T47D for PI3K inhibitors)
Protocol: Cell lysates were subjected to immunoblot analysis with the indicated antibodies. • ZR‐75‐1 cells cultured in serum in the absence of Akt inhibitor were treated for 1 h with the indicated concentrations of VPS34‐IN1. […] One hour prior to lysis, the cells were incubated in the presence or absence of 1 μM VPS34‐IN1. SGK3 was immunoprecipitated from lysates and subjected to in vitro kinase assay by measuring phosphorylation of the Crosstide substrate peptide in the presence of 0.1 mM [γ‐^32P]ATP in a 30 min 30°C reaction (upper panel). Kinase reactions are presented as means ± SD for triplicate reaction. Immunoprecipitates (IP) and lysates were analysed by immunoblot with the indicated antibodies. […] SGK3 was immunoprecipitated from the lysates and subjected to in vitro kinase assay as in (C). Kinase reactions are presented as means ± SD for triplicate reaction. Immunoprecipitates (IP) and lysates (lower panel) were also subjected to immunoblot analysis with the indicated antibodies. • ZR‐75‐1 cells were cultured in the absence or presence of 1 μM MK‐2206 for 5 days. Cells were then treated in the absence or presence of 0.1 μM AZD8055 or 0.1 μM rapamycin for 1 h. SGK3 was immunoprecipitated and subjected to in vitro kinase assay as in (C). Kinase reactions are presented as means ± SD for triplicate reaction. The immunoprecipitates (IP) and lysates were analysed with the indicated antibodies.
One hour prior to lysis, the cells were incubated in the presence of absence of 0.3 μM SAR405. SGK3 was immunoprecipitated from lysates and subjected to in vitro kinase assay by measuring phosphorylation of the Crosstide substrate peptide in the presence of 0.1 mM [γ‐^32P]ATP in a 30 min 30°C reaction (upper panel). Kinase reactions are presented as means ± SD for triplicate reaction. Immunoprecipitates (IP) and lysates were also analysed by immunoblot with the indicated antibodies.
The result for each kinase is presented as a mean kinase activity of the reaction taken in triplicate relative to a control reaction where the inhibitors were omitted. […] SGK3 was immunoprecipitated from cell lysates and subjected to in vitro kinase assay by measuring phosphorylation of the Crosstide substrate peptide in the presence of 0.1 mM [γ‐^32P]ATP in a 30 min 30°C reaction (upper panel). Kinase reactions are presented as means ± SD for triplicate reaction.
HEK293 cells were purchased from the American Tissue Culture Collection (ATCC). Cells were cultured in RPMI or DMEM media supplemented with 10% (v/v) foetal bovine serum, 2 mM L‐glutamine, 100 U/ml penicillin and 0.1 mg/ml streptomycin. Inhibitor treatments were carried out as described in figure legends. During 5 days inhibitor treatments, the media was changed after 72‐h intervals. The cells were lysed in buffer containing 50 mM Tris–HCl (pH 7.5), 150 mM NaCl, 1 mM EDTA, 1 mM EGTA, 1 mM sodium orthovanadate, 10 mM sodium glycerophosphate, 10 mM sodium pyrophosphate, 0.27 M sucrose, 0.1% (v/v) 2‐mercaptoethanol, 1 mM benzamidine and 0.1 mM PMSF. Lysates were clarified by centrifugation at 16,000 g for 10 min at 4°C. Protein concentration was calculated using Bradford assay (Thermo Scientific). Immunoblotting and immunoprecipitation were performed using standard procedures. The signal was developed using ECL Western Blotting Detection Kit (Amersham) on Amersham Hyperfilm ECL film (Amersham).

SMILES	concentration of near maximal inhibition of PDK1 phosphorylating SGK3[S486E] at Thr320 (SGK3[S486E])	phosphorylation of PRAS40 (Thr246) and NDRG1 (Thr346) [1]
Nc1n[nH]c2nc(-c3ccc(NS(=O)(=O)c4cc(Cl)ccc4Cl)cc3)cnc12 [14h]	0.1 µM	
NC1(c2ccc(-c3nc4ccn5c(=O)[nH]nc5c4cc3-c3ccccc3)cc2)CCC1 [MK-2206]		inhibited
